Results from patent US10842779B2, “Heterocyclic compounds and their use in preventing or treating bacterial infections” (priority 2015, dated 2020).
Read-outs that look alike come from different tables or passages of the source.

Columns and labels:
Experiment in all cases: MIC of compounds alone, broth microdilution
Assay type in all cases: cell-based
P. aeruginosa = conditions: Pseudomonas aeruginosa
Procedure: (§1) Method 2: MIC of Compounds and Synergy with Ceftazidime Against Bacterial Isolates (Table 2 and 3)
(§2) Compounds of the present invention were assessed against genotyped bacterial strains alone or in combination with the β-lactam ceftazidime. In the assays, MICs of said compounds, or of ceftazidime at fixed concentrations of said compounds were determined by the broth microdilution method according to the Clinical Laboratory Standards Institute (CLSI—M7-A7). Briefly, compounds alone according to the invention were prepared in DMSO and spotted (2 μL each) on sterile polystyrene plates (Corning, 3788). Compounds and ceftazidime dilutions were prepared in DMSO and spotted (1 μL each) on sterile polystyrene plates (Corning, 3788). Log phase bacterial suspensions were adjusted to a final density of 5×10^5 cfu/mL in cation-adjusted Mueller-Hinton broth (Beckton-Dickinson) and added to each well (98 μL). Microplates were incubated for 16-20 h at 35° C. in ambient air. The MIC of the compounds was defined as the lowest concentration of said compounds that prevented bacterial growth as read by visual inspection. The MIC of ceftazidime at each compound concentration was defined as the lowest concentration of ceftazidime that prevented bacterial growth as read by visual inspection.

C. freundii = conditions: Citrobacter freundii
Procedure: as §1, §2

C. murliniae = tested on: C. murliniae
Procedure: as §1, §2

K. oxytoca = conditions: Klebsiella oxytoca
Procedure: as §1, §2

E. cloacae = conditions: Enterobacter cloacae
Procedure: as §1, §2

E. aerogenes = conditions: Klebsiella aerogenes
Procedure: as §1, §2

M. morganii = conditions: Morganella morganii, MMO 200321, beta-lactamases TEM-1, CTX-M-15 OXA-1
Procedure: as §1, §2

E. coli = conditions: Escherichia coli
Procedure: as §1, §2

P. mirabilis = conditions: Proteus mirabilis, PMI UFR82, beta-lactamases CMY-2
Procedure: as §1, §2

S. marcescens = conditions: Serratia marcescens, SMA UFR30, beta-lactamases OXA-405
Procedure: as §1, §2

K. pneumoniae = conditions: Klebsiella pneumoniae
Procedure: as §1, §2

Measured: MIC

CC(C)(O/N=C(\C(=O)N[C@@H]1C(=O)N2C(C(=O)[O-])=C(C[n+]3ccccc3)CS[C@H]12)c1csc(N)n1)C(=O)O [CAZ, ceftazidime, reference compound]
4 µg/mL: E. coli; ECO 200259, beta-lactamases CTX-M-14, read-out: MIC | P. mirabilis
128 µg/mL: P. aeruginosa | K. oxytoca | E. cloacae; ECL 2185D, beta-lactamases OXA-163 | E. cloacae; ECL 190408, beta-lactamases TEM-1, CTX-M-15 OXA-1 | E. cloacae; ECL P99, beta-lactamases AmpC | E. aerogenes | E. coli; ECO 190317, beta-lactamases TEM-1, SHV-12, CTX-M-15 OXA-1 | E. coli; ECO 260096, beta-lactamases CTX-M-132 | E. coli; ECO 260508, beta-lactamases TEM-1, CTX-M-15 OXA-1 | E. coli; ECO UFR19, beta-lactamases CTX-M-15 CMY-2 OXA-1 OXA-204 | E. coli; ECO UFR61O, beta-lactamases TEM-1 KPC-2 | E. coli; ECO UFR74, beta-lactamases SHV-1 DHA-1 | K. pneumoniae; alone, KPN 110376, beta-lactamases TEM-1, SHV-1, CTX-M-15 OXA-1 OXA-48 | K. pneumoniae; alone, KPN 160143, beta-lactamases TEM-1, SHV-1, CTX-M-15 KPC-2 OXA-1 | K. pneumoniae; alone, KPN 200047, beta-lactamases TEM-1, SHV-32, CTX-M-15 OXA-1 | K. pneumoniae; alone, KPN 260376, beta-lactamases SHV-1, SHV-49 OXA-1 | K. pneumoniae; alone, KPN 270077, beta-lactamases TEM-1, SHV-1, CTX-M-15 | K. pneumoniae; alone, KPN UFR25, beta-lactamases TEM-1, SHV-11, CTX-M-15 OXA-162 | K. pneumoniae; alone, KPN UFR28, beta-lactamases TEM-1, SHV-1, CTX-M-15 OXA-1 OXA-232 | K. pneumoniae; alone, KPN UFR65, beta-lactamases TEM-1, SHV-11 KPC-2 | K. pneumoniae; alone, KPN UFR81, beta-lactamases TEM-1, SHV-1 DHA-1 OXA-48
8 µg/mL: C. freundii; alone, CFR UFR11, beta-lactamases TEM-1 OXA-1 OXA-48, read-out: MIC | E. coli; ECO 190314, beta-lactamases CTX-M-1, read-out: MIC | E. coli; ECO 190549, beta-lactamases CTX-M-1, read-out: MIC
256 µg/mL: P. aeruginosa; CIP107051 | K. pneumoniae; BAA1898, alone, KPN BAA-1898, beta-lactamases TEM-1, SHV-11, SHV-12 KPC-2 | K. pneumoniae; alone, KPN 6299, beta-lactamases TEM-1, SHV-11 OXA-163
64 µg/mL: C. freundii; alone, CFR UFR10, beta-lactamases OXA-48, read-out: MIC | E. cloacae; ECL 260508, beta-lactamases TEM-1, CTX-M-15, read-out: MIC | E. coli; ECO 180070, beta-lactamases TEM-1, CTX-M-15, read-out: MIC | E. coli; ECO UFR16, beta-lactamases TEM-1, CTX-M-15 OXA-1 OXA-48, read-out: MIC | K. pneumoniae; alone, KPN 190551, beta-lactamases TEM-1, SHV-1, CTX-M-15 OXA-1, read-out: MIC | K. pneumoniae; alone, KPN 700603, beta-lactamases SHV-18 OXA-2, read-out: MIC | K. pneumoniae; alone, KPN UFR77, beta-lactamases CMY-2, read-out: MIC
16 µg/mL: M. morganii | E. coli; ECO 190457, beta-lactamases CTX-M-15 OXA-1, read-out: MIC | E. coli; ECO 200344, beta-lactamases CTX-M-1, read-out: MIC | E. coli; ECO 260304, beta-lactamases CTX-M-15, read-out: MIC | E. coli; ECO UFR62, beta-lactamases TEM-1, CTX-M-9 KPC-2, read-out: MIC | S. marcescens
0.25 µg/mL: K. pneumoniae; alone, KPN LIB, beta-lactamases SHV-11 OXA-48, read-out: MIC
> 128 µg/mL: C. freundii | C. murliniae | E. cloacae; ECL 190310, beta-lactamases AmpC | E. cloacae; ECL 200138, beta-lactamases AmpC | E. cloacae; ECL 200322, beta-lactamases TEM-1, CTX-M-15 OXA-1 | E. cloacae; ECL 260033, beta-lactamases AmpC | E. cloacae; ECL 260253, beta-lactamases TEM-1 KPC-3 | E. cloacae; ECL 260323, beta-lactamases AmpC | E. cloacae; ECL HAN, beta-lactamases OXA-35 | E. cloacae; ECL NEM146383, beta-lactamases AmpC | E. cloacae; ECL UFR13, beta-lactamases TEM-1, SHV-12, CTX-M-9 OXA-48 | E. cloacae; ECL UFR14, beta-lactamases TEM-1, SHV-12, CTX-M-15 DHA-1 OXA-1 OXA-48 | E. cloacae; ECL UFR38, beta-lactamases CTX-M-15 NDM-1 | E. cloacae; ECL UFR51, beta-lactamases SHV-12 IMP-8 | E. cloacae; ECL UFR60, beta-lactamases TEM-1, CTX-M-15 KPC-2 | E. cloacae; ECL UFR70, beta-lactamases TEM-1, CTX-M-15 CMY-2 OXA-1 | E. cloacae; ECL UFR84, beta-lactamases TEM-1 AmpC OXA-1 | E. cloacae; ECL UFR85, beta-lactamases TEM-1, CTX-M-15 AmpC | E. coli; ECO UFR17, beta-lactamases TEM-1, CTX-M-15 CMY-2 OXA-1 OXA-181 | E. coli; ECO UFR18, beta-lactamases CTX-M-15 OXA-204 | E. coli; ECO UFR32, beta-lactamases TEM-1, VEB-1 OXA-10 | E. coli; ECO UFR39, beta-lactamases CTX-M-15 NDM-1 | E. coli; ECO UFR41, beta-lactamases TEM-1, CTX-M-15 CMY-2 OXA-1 NDM-4 | E. coli; ECO UFR52, beta-lactamases TEM-1, SHV-12 IMP-8 | K. pneumoniae; alone, KPN 131119, beta-lactamases TEM-1, SHV-11, CTX-M-15 OXA-1 OXA-48 | K. pneumoniae; alone, KPN 190128, beta-lactamases TEM-1, SHV-32, CTX-M-15 OXA-1 | K. pneumoniae; alone, KPN 190270, beta-lactamases TEM-1, SHV-76, CTX-M-15 OXA-1 | K. pneumoniae; alone, KPN 190425, beta-lactamases TEM-1, SHV-1, CTX-M-15 OXA-1 | K. pneumoniae; alone, KPN 260251, beta-lactamases TEM-1, SHV-11, SHV-12, CTX-M-15 KPC-2 | K. pneumoniae; alone, KPN 260252, beta-lactamases TEM-1, SHV-11 KPC-3 | K. pneumoniae; alone, KPN 6122012, beta-lactamases SHV-1 NDM-1 | K. pneumoniae; alone, KPN ARA, beta-lactamases TEM-1, SHV-11, CTX-M-15 OXA-1 OXA-48 | K. pneumoniae; alone, KPN UFR24, beta-lactamases TEM-1, SHV-2, SHV-11 OXA-1 OXA-48 OXA-47 | K. pneumoniae; alone, KPN UFR27, beta-lactamases TEM-1, SHV-28, CTX-M-15 OXA-204 | K. pneumoniae; alone, KPN UFR42, beta-lactamases SHV-2, CTX-M-15 OXA-1 OXA-181 NDM-1 | K. pneumoniae; alone, KPN UFR43, beta-lactamases SHV-11, CTX-M-15 CMY-2 OXA-1 NDM-1 | K. pneumoniae; alone, KPN UFR53, beta-lactamases TEM-1 IMP-1 | K. pneumoniae; alone, KPN UFR66, beta-lactamases TEM-1, SHV-11, CTX-M-15 KPC-2 | K. pneumoniae; alone, KPN UFR68, beta-lactamases TEM-1, SHV-11, CTX-M-15 KPC-3
32 µg/mL: K. pneumoniae; alone, KPN 200327, beta-lactamases TEM-1, SHV-1, CTX-M-15 OXA-1, read-out: MIC | K. pneumoniae; alone, KPN UFR79, beta-lactamases DHA-1 OXA-1, read-out: MIC
2 µg/mL: E. cloacae; ECL UFR12, beta-lactamases CTX-M-9 OXA-48, read-out: MIC | E. coli; ECO 200159, beta-lactamases TEM-1, CTX-M-14, read-out: MIC | E. coli; ECO UFR45, beta-lactamases TEM-1 CMY-4 OXA-1 OXA-48 VIM-1, read-out: MIC | K. pneumoniae; alone, KPN UFR22_O, beta-lactamases TEM-1, SHV-1 OXA-48, read-out: MIC
0.5 µg/mL: K. pneumoniae; alone, KPN UFR80, beta-lactamases SHV-11 DHA-1 OXA-1, read-out: MIC
